# Source: publication PMC6274457, “Characterization of a New Flavone and Tyrosinase Inhibition Constituents from the Twigs of Morus alba L” (Molecules, 2016)
# Target: T1, Mushroom tyrosinase (Agaricus bisporus, UniProt C7FF04)
# Assay: Mushroom tyrosinase inhibitory assay (spectrophotometric, L-tyrosine substrate)
# Format: biochemical
# Settings: qualitative statement; comparison with positive control kojic acid where stated
# Procedure: The compounds were firstly dissolved in DMSO at a concentration of 1.0 mg/mL and then diluted to different concentrations with DMSO. […] The reaction mixtures (3.0 mL) were vortexed and the initial absorbance at 492 nm was measured. After incubation for 20 min at 37 °C, the final absorbance at the same wavelength was taken. […] B1 is the absorbance at 492 nm of test sample at 0 min, B2 is the absorbance at 492 nm of test sample at 20 min.
# T1 sequence (G1K3P4 entry or part of it): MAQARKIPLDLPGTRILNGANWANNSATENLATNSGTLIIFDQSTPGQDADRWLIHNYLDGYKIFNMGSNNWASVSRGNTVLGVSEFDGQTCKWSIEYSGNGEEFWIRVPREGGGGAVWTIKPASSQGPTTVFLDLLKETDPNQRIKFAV
# T1 sequence (C7FF04 1-392): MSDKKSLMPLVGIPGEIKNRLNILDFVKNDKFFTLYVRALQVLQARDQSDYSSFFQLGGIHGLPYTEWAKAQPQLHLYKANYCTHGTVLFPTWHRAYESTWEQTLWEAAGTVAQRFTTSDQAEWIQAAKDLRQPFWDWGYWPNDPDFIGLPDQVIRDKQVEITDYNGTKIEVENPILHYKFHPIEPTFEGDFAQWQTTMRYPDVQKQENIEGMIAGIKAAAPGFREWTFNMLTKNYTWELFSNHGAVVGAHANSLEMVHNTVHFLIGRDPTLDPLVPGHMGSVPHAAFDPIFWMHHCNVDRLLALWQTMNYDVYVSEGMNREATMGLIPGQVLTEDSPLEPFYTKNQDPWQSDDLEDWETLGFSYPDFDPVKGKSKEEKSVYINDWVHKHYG
row,"Mushroom tyrosinase inhibitory activity, result in words",Structure (SMILES)
1,much stronger,"O=C(/C=C/c1ccc(O)cc1O)c1ccc(O)cc1O [2,4,2′,4′-Tetrahydroxychalcone (3), 2,4,2′,4′-Tetrahydroxychalcone]"
2,much stronger,"CC(C)=CCc1c(O)ccc(C(=O)/C=C/c2ccc(O)cc2O)c1O [Morachalcone A (4), morachalcone A]"
3,much stronger,"Oc1cc(O)cc(-c2cc3ccc(O)cc3o2)c1 [Moracin M (14), moracin M]"
4,weak,"C=C(C)C(=O)Cc1c(-c2ccc(O)cc2O)oc2c3c(cc(O)c2c1=O)OC(C)(C)C=C3 [Morusone (1), 2-(2,4-dihydroxyphenyl)-5-hydroxy-8,8-dimethyl-3-(3-methyl-2-oxo-but-3-enyl)-8H-pyrano[2,3-f]chromen-4-one]"
5,much stronger,"O=C1CC(c2ccc(O)cc2O)Oc2cc(O)cc(O)c21 (stereo not shown) [Steppogenin (2), steppogenin]"

row,Structure (SMILES),"Mushroom tyrosinase inhibitory activity, result in words"
1,"Oc1cc(O)cc(/C=C/c2ccc(O)cc2O)c1 [Oxyresveratrol (5), oxyresveratrol]",much stronger

# Target: T1, Mushroom tyrosinase
# Assay: not given
# Parameters: method as in PMID 26616992
# Settings: single resorcinol derivatives, weak activity; read-out: Tyrosinase inhibitory activity IC50; cited from earlier work
row,Structure (SMILES),IC50
1,"CC(=O)c1ccc(O)cc1O [2,4-dihydroxyacetophenone]",> 200 µM
